# Assay results as given in patent US20070099852A1, “CUCURBITACIN COMPOUNDS” (SOUTH DAKOTA STATE UNIVERSITY, priority 2005, published 2007).
# Marks after values point to notes of the source that are not given here.
# How the values were obtained:
# [1] = Chromatographic hydrophobicity index (CHI) by RP-HPLC in buffered acetonitrile; format: physicochemical; details: isochratic and gradient elution of standard mixture
# [2] = Chromatographic hydrophobicity index (CHI) by RP-HPLC in buffered methanol; format: physicochemical; details: isochratic and gradient elution of standard mixture
# [3] = gradient elution of standard mixture and correlation with published data; published CHI values; cited from earlier work
# HepG2 cells [4] = details: for cytoprotection on HepG2 cells at 6.25% IC50: compound at 6.25% of its IC50, CCl4 4.5×10^−3 M; for cytoprotection on HepG2 cells at 12.5% IC50: compound at 12.5% of its IC50, CCl4 4.5×10^−3 M; for cytoprotection on HepG2 cells at 20% IC50: compound at 20% of its IC50, CCl4 4.5×10^−3 M; for cytoprotection on HepG2 cells at 50% IC50: compound at 50% of its IC50, CCl4 4.5×10^−3 M
# From the text: The activity of two toxins was studied first on HepG2 cells—bromobenzene (BB) and CCl4. Cells were challenged with the toxins at different concentration levels.
# Experimental conditions were standardized on silybin. Cells were challenged with CCl4 (4.5×10^−3M) in presence of silybin at various concentrations.
# The ratio of IC50-to-EC50 (hereafter T/A) is also indicated in this table, which gives the margin between toxic and cytoprotective concentrations.
# [5] = DPPH Stable Free Radical Scavenging Assay; details: for DPPH activity at 50 μM: up to 30 minutes incubation
# Description: Cucurbitacin antioxidant activity was studied first by the DPPH® Stable Free Radical Scavenging Assay (Cotelle et al., Free radical Biology & Medicine 20(1): 35-43, 1996). Experimental conditions were optimized on the standard compound ascorbic acid. Data indicated 30% activity at 50 μM concentration, and 100% activity at 100 μM for ascorbic acid. While the original assay required 10 minutes incubation time for the reaction to occur, this time was increased up to 30 minutes in case cucurbitacin were reacting slower than other reagents.
# [6] = ABTS Radical Cation Decolorization Assay; details: 50 μM, 100 μM, and 1.8 mM; up to 2 hours
# Description: Cucurbitacin B activity was monitored at 50 μM, 100 μM, and 1.8 mM. The time interval was expanded up to 2 hours in case cucurbitacin B was reacting slowly.
# HepG2 cells [7] = format: cell-based, human; details: HepG2, toxin at 4.5×10^−3 M
# Description: The activity of two toxins was studied first on HepG2 cells—bromobenzene (BB) and CCl4. Cells were challenged with the toxins at different concentration levels. Precipitate formation was observed when BB was diluted with media prior to addition to the cells; therefore, both the precipitate and the supernatant were added separately over cells to study their toxic effect.
# HSC-T6 cells [8] = assay: Serum-driven HSC-T6 proliferation, Experiment 1 (4 h challenge); format: cell-based, rat; details: for Experiment 1 anti-proliferation activity at 100 μM: HSC-T6, measured at 100 μM
# Description: The proliferation effect of serum on HSC-T6 cells was optimized and cucurbitacin antiproliferative activity was measured. Serum contains a large number of growth factors, hormones and other nutrients, which help cells to grow and multiply. Several trials were conducted. In experiment 1, cells were challenged with cucurbitacin analogs for 4 h and then cells were grown in drug-free media for two additional days.
# We established several experimental conditions such as 4 hours of incubation time with cucurbitacin, and 2 day cell incubation with fresh media after challenging with cucurbitacin (Exp. 1). Other experiments involved addition of cucurbitacin for 24 hours over starved cells (Exp. 2) vs. proliferating cells (Exp. 3), and one day incubation of cells with fresh media after challenge. […] Because of that, the challenge time was increased to 24 hours (Exp. 2 and 3).
# We modified this approach. Our assay included a second control (ZC) supplemented with no serum intended to measure cucurbitacin anti-proliferation effect relative to the number of cells generated during challenge instead of the total number of cells present in each well.
# HSC-T6 cells [9] = assay: Cucurbitacin cytotoxicity on HSC-T6 (Experiment 3); format: cell-based, rat; details: 24 h
# From the text: Cytotoxicity of all cucurbitacin analogs was additionally measured in experiment 3 (Table 8).
# HSC-T6 cells [10] = assay: PDGF-driven proliferation of HSC-T6 cells; format: cell-based, rat; details: HSC-T6, incubation with PDGF for 2 days; not reproducible
# From the text: The proliferation assay described by Zhang et al. (Zhang et al., Acta Pharmacol. Sin. 21: 253-256, 2000), was followed to determine the proliferative effect of PDGF on HSC-T6 cells, and yielded to total cell confluency prior to the addition of PDGF to the cells. Therefore, experimental conditions were changed stepwise to reduce cell confluency. When cell concentration was reduced from the initial 10,000 to 4,000 cells/well, and FBS concentration was reduced from 10 to 2%, cell confluency reached approximately 50% prior to the addition of PDGF. […] Further modifications to the initial assay were done such as increase of period of incubation or increase of PDGF concentration. Cells incubation with PDGF for 2 days indicated some degree of proliferation (0-22%), but it was not reproducible from one trial to the other.
# The experimental conditions presented by Yang et al. (Yang et al., World J. Gastroenterol. 9: 2050-2053, 2003) were also examined. It involved 1-day cell starvation in serum-free media followed by 3 h challenge with drug candidates and then 2 days incubation with PDGF in serum-free media. In our study, PDGF was added at various concentration levels to starved cells and incubation period with PDGF was increased to 2-to-3 days. However, we could not achieve a stable and significant level of cell proliferation in the presence of PDGF. […]
compound,measurement,setting,value
"CC(=O)c1ccccc1 [Acetophenone (21), acetophenone]",CHIACN^b (standard compounds),[1],61.93 ± 0.05
same,CHIMeOH^b (standard compounds),[2],52.47 ± 0.05
same,CHIACN^c (standard compounds),[3],64.90
"Nc1ccccc1 [Aniline (28), aniline]",CHIMeOH^b (standard compounds),[2],29.94 ± 0.05
"CC(=O)OC(C)(C)/C=C/C(=O)[C@](C)(O)[C@H]1[C@H](O)C[C@@]2(C)[C@@H]3CC=C4[C@H](C[C@H](O)C(=O)C4(C)C)[C@]3(C)C(=O)C[C@]12C [B, cucurbitacin B]",cytoprotection on HepG2 cells at 6.25% IC50,HepG2 cells [4],12.45 ± 1.11
same,cytoprotection on HepG2 cells at 12.5% IC50,HepG2 cells [4],25.25 ± 1.36
same,cytoprotection on HepG2 cells at 20% IC50,HepG2 cells [4],34.92 ± 2.76
same,cytoprotection on HepG2 cells at 50% IC50,HepG2 cells [4],60.01 ± 0.80
same,DPPH activity at 50 μM,[5],did not indicate any activity
same,ABTS activity,[6],No activity
"c1ccc2[nH]cnc2c1 [Benzimidazole (20), benzimidazole]",CHIACN^b (standard compounds),[1],43.18 ± 0.12
same,CHIMeOH^b (standard compounds),[2],41.07 ± 0.04
same,CHIACN^c (standard compounds),[3],30.71
"Brc1ccccc1 [Bromobenzene (29), bromobenzene]",CHIMeOH^b (standard compounds),[2],69.43 + 0.07
"CCCC(=O)c1ccccc1 [Butyrophenone (24), butyrophenone]",CHIACN^b (standard compounds),[1],79.32 ± 0.14
same,CHIMeOH^b (standard compounds),[2],66.79 ± 0.05
same,CHIACN^c (standard compounds),[3],88.49
ClC(Cl)(Cl)Cl [CCl4],cell viability,HepG2 cells [7],40%-50%
"COc1cc2c(c(OC)c1OC)-c1ccc(OC)c(=O)cc1[C@@H](NC(C)=O)CC2 [Colchicine (26), colchicine]",CHIMeOH^b (standard compounds),[2],57.56 + 0.04
same,CHIACN^c (standard compounds),[3],41.37
"CC(=O)OC(C)(C)/C=C/C(=O)[C@](C)(O)[C@H]1[C@H](O)C[C@@]2(C)[C@@H]3CC=C4[C@@H](C=C(O[C@@H]5O[C@H](CO)[C@@H](O)[C@H](O)[C@H]5O)C(=O)C4(C)C)[C@]3(C)C(=O)C[C@]12C [E-Gluc, cucurbitacin E glucoside]",cytoprotection on HepG2 cells at 6.25% IC50,HepG2 cells [4],−2.36 ± 1.08
same,cytoprotection on HepG2 cells at 12.5% IC50,HepG2 cells [4],17.96 ± 1.14
same,cytoprotection on HepG2 cells at 20% IC50,HepG2 cells [4],49.44 ± 0.29
same,cytoprotection on HepG2 cells at 50% IC50,HepG2 cells [4],33.92 ± 2.92
same,Experiment 1 anti-proliferation activity at 100 μM,HSC-T6 cells [8],˜46% ^a
"CC(C)(O)/C=C/C(=O)[C@](C)(O)[C@H]1[C@H](O)C[C@@]2(C)[C@@H]3CC=C4[C@@H](C=C(O)C(=O)C4(C)C)[C@]3(C)C(=O)C[C@]12C [I, cucurbitacin I]",cytoprotection on HepG2 cells at 6.25% IC50,HepG2 cells [4],4.55 ± 0.64
same,cytoprotection on HepG2 cells at 12.5% IC50,HepG2 cells [4],17.50 ± 1.32
same,cytoprotection on HepG2 cells at 20% IC50,HepG2 cells [4],50.09 ± 1.02
same,cytoprotection on HepG2 cells at 50% IC50,HepG2 cells [4],54.75 ± 0.29
"CC(C)(O)/C=C/C(=O)[C@](C)(O)C1[C@H](O)C[C@@]2(C)C3CC=C4C(C=C(O[C@@H]5O[C@H](CO)[C@@H](O)[C@H](O)[C@H]5O)C(=O)C4(C)C)[C@]3(C)C(=O)C[C@]12C (some centres unmarked) [I-Gluc, cucurbitacin I glucoside]",Experiment 1 anti-proliferation activity at 100 μM,HSC-T6 cells [8],˜20% ^a
CC(C)OC1=CC2C(=CCC3C2(C)C(=O)CC2(C)C(C(C)(O)C(=O)C=CC(C)(C)O)C(O)CC32C)C(C)(C)C1=O (centres unmarked) [I-iPr],cytoprotection on HepG2 cells at 6.25% IC50,HepG2 cells [4],−17.10 ± 1.54
same,cytoprotection on HepG2 cells at 12.5% IC50,HepG2 cells [4],4.15 ± 0.48
same,cytoprotection on HepG2 cells at 20% IC50,HepG2 cells [4],18.69 ± 0.13
same,cytoprotection on HepG2 cells at 50% IC50,HepG2 cells [4],41.73 ± 2.06
"CCCOC1=CC2C(=CCC3C2(C)C(=O)CC2(C)C(C(C)(O)C(=O)C=CC(C)(C)O)C(O)CC32C)C(C)(C)C1=O (centres unmarked) [I-nPr, cucurbitacin I-nPr]",Experiment 1 anti-proliferation activity at 2-6 μM,"HSC-T6 cells [8]; HSC-T6, measured at 2-6 μM",˜18% ^b
"c1ccc2[nH]ccc2c1 [Indole (22), indole]",CHIACN^b (standard compounds),[1],67.73 + 0.13
same,CHIACN^c (standard compounds),[3],69.15
"Cn1c(=O)c2nc(-c3ccccc3)[nH]c2n(C)c1=O [Ph-theophylline (27), phenyltheophylline]",CHIMeOH^b (standard compounds),[2],61.61 ± 0.04
same,CHIACN^c (standard compounds),[3],52.04
"CCC(=O)c1ccccc1 [Propiophenone (23), propiophenone]",CHIACN^b (standard compounds),[1],71.72 + 0.15
same,CHIMeOH^b (standard compounds),[2],60.41 + 0.04
same,CHIACN^c (standard compounds),[3],78.41
"COc1cc(C2Oc3cc([C@H]4Oc5cc(O)cc(O)c5C(=O)[C@@H]4O)ccc3OC2CO)ccc1O (some centres unmarked) [Silybin, reference compound]",cell growth with silybin alone,"HepG2 cells [4]; HepG2, silybin alone, 14 to 200 μM",up to 125%
same,toxicity of silybin alone on HepG2 cells,"HepG2 cells [4]; silybin alone, absence of CCl4, 14 to 200 μM (FIG. 4)",no toxicity
same,Experiment 1 anti-proliferation activity at 100 μM,HSC-T6 cells [8],˜20% ^a
same,"Experiment 3 IC50 (μM, T)",HSC-T6 cells [9],non
"Cn1c(=O)c2[nH]cnc2n(C)c1=O [Theophylline (19), theophylline]",CHIACN^b (standard compounds),[1],32.63 ± 0.07
same,CHIMeOH^b (standard compounds),[2],25.76 ± 0.05
same,CHIACN^c (standard compounds),[3],15.76
"CCCCC(=O)c1ccccc1 [Valerophenone (25), valerophenone]",CHIACN^b (standard compounds),[1],86.66 ± 0.08
same,CHIMeOH^b (standard compounds),[2],73.05 + 0.12
same,CHIACN^c (standard compounds),[3],97.67
O=C1O[C@H]([C@@H](O)CO)C(O)=C1O [ascorbic acid],DPPH activity at 50 μM,[5],30%
same,DPPH activity at 100 μM,[5]; 100 μM,100%
PDGF,degree of proliferation,HSC-T6 cells [10],0-22%
cucurbitacin E,cytoprotection on HepG2 cells at 6.25% IC50,HepG2 cells [4],12.41 ± 0.78
same,cytoprotection on HepG2 cells at 12.5% IC50,HepG2 cells [4],21.72 ± 0.75
same,cytoprotection on HepG2 cells at 20% IC50,HepG2 cells [4],49.21 ± 1.73
same,cytoprotection on HepG2 cells at 50% IC50,HepG2 cells [4],80.55 ± 6.80
